{"source": "patent US8389573B2", "about": "“Glycyrrhetinic acid derivatives” (Wellington Laboratories Inc., priority 2006, dated 2013)", "key": {"SW480 cells": {"test_system": "SW480 cells", "assay": "Western blot analysis in SW480 cells", "format": "cell-based, human", "protocol": "SW-480 and HT-29 (3×10^5) cells were seeded in six-well plates in DMEM/Ham's F-12 media containing 2.5% charcoal-stripped FBS for 24 h and then treated with either the vehicle (DMSO) or the indicated compounds. Whole-cell lysates were obtained using high-salt buffer [50 mM HEPES, 500 mM NaCl, 1.5 mM MgCl2, 1 mM EGTA, 10% glycerol, and 1% Triton X-100, pH 7.5, and 5 μl/ml Protease Inhibitor Cocktail (Sigma-Aldrich)]. Protein samples were incubated at 100° C. for 2 min, separated on 10% SDS-PAGE at 120 V for 3 to 4 h in 1× running buffer (25 mM Tris-base, 192 mM glycine, and 0.1% SDS, pH 8.3), and transferred to polyvinylidene difluoride membrane (PVDF; Bio-Rad, Hercules, Calif.) at […] for 16 h at 4° C. in 1× transfer buffer (48 mM Tris-HCl, 39 mM glycine, and 0.025% SDS). The PVDF membrane was blocked in 5% TBST-Blotto (10 mM Tris-HCl, 150 mM NaCl, pH 8.0, 0.05% Triton X-100, and 5% nonfat dry milk) with gentle shaking for 30 min and was incubated in fresh 5% TBST-Blotto with 1:1000 (for caveolin-1, p27, p21, cyclin D1, Grp78), 1:500 (for KLF4, NAG-1), 1:250 (for PARP), and 1:5000 (for β-actin) primary antibody overnight with gentle shaking at 4° C. After washing with TBST for 10 min, the PVDF membrane was incubated with secondary antibody (1:5000) in 5% TBST-Blotto for 90 min. The membrane was washed with TBST for 10 min, incubated with 10 ml of chemiluminescence substrate (PerkinElmer) for 1.0 min, and exposed to Kodak X-OMAT AR autoradiography film (Eastman Kodak, Rochester, N.Y.)."}, "[1]": {"test_system": "Panc28 pancreatic cancer cells", "assay": "Growth inhibition in Panc28 pancreatic cancer cells", "format": "cell-based", "details": "Pancreatic cancer cell"}, "[2]": {"test_system": "Sp1, Sp3 and Sp4 protein expression in Panc28 cells", "assay": "Sp protein expression (gels) in Panc28 cells", "format": "cell-based"}, "[3]": {"test_system": "LNCaP human prostate carcinoma cells", "assay": "Cell proliferation assay in LNCaP cells", "format": "cell-based", "details": "96 hr, read-out: IC50, inhibition of LNCaP cell growth", "protocol": "Cell lines: LNCaP human prostate carcinoma cells were obtained from American Type Culture Collection (Manassas, Va.). Fetal bovine serum was obtained from JRH Biosciences, Lenexa, Kans. LNCaP cells were maintained in RPMI 1640 (Sigma Chemical, St. Louis, Mo.) supplemented with 0.22% sodium bicarbonate, 0.011% sodium pyruvate, 0.45% glucose, 0.24% HEPES, 10% FBS, and 10 mL/L of 100× antibiotic/antimycotic solution (Sigma). Cells were maintained at 37° C. in the presence of 5% CO2.\nCell Proliferation and DNA Fragmentation Assays: LNCaP prostate cancer cells (2×10^4 per well) were added to 12-well plates and allowed to attach for 24 hr. The medium was then changed to DMEM/Ham's F-12 media containing 2.5% charcoal-stripped FBS, and either vehicle (DMSO) or the indicated C-DIMs were added. Fresh medium and indicated compounds were added every 48 hr, and cells were then trypsinized and counted after 2, 4, and 6 days using a Coulter Z1 cell counter (Beckman Coulter, Fullerton, Calif.). Each experiment was done in triplicate, and results are expressed as means±S.E. for each set of three experiments. The DNA fragmentation assay was performed using a BioVision Apoptotic DNA ladder extraction kit (BioVision, Mountain View, Calif.) according to the manufacturer's protocol."}, "p21 promoter": {"test_system": "p21 promoter", "assay": "p21 promoter construct luciferase assay in LNCaP cells", "format": "cell-based", "details": "1-5 μM"}, "AR promoter": {"test_system": "AR promoter", "assay": "AR-luc promoter luciferase assay in LNCaP cells", "format": "cell-based", "excerpt": "Transfections: The Gal4 reporter construct containing 5× Gal4 response elements (pGal4) was kindly provided by Dr. Marty Mayo (University of North Carolina, Chapel Hill, N.C.). The Gal4 DBD-PPARγ construct was a gift of Dr. Jennifer L. Oberfield (Glaxo Wellcome Research and Development, Research Triangle Park, N.C.). The PPRE-luc construct contains three tandem PPREs with a minimal TATA sequence linked to the luciferase gene in pGL2. The AR-luc construct containing the −5400 to +580 region of the androgen receptor promoter was provided by Dr. Donald J. Tindall (Mayo Clinic, Rochester, Minn.), and the PSA-luc construct containing the 5.8-kilobase region of the PSA promoter was provided by Dr. Hong-Wu Cheng (University of California, Davis, Calif.). LNCaP cells (1×10^5) were seeded in 12-well plates in DMEM/Ham's F-12 media supplemented with 2.5% charcoal-stripped FBS and grown overnight. Transient transfections were performed using Lipofectamine reagent (Invitrogen) according to the protocol provided by the manufacturer. Transfection studies were performed using 0.4 μg of Gal4Luc, 0.04 μg of β-galactosidase, 0.04 μg of Gal4 DBD-PPARγ, 0.4 μg of AR-luc, and 0.3 μg of PSA-luc. […] A Lumicount luminometer (PerkinElmer Life and Analytical Sciences) was used to quantify luciferase and β-galactosidase activities, and the luciferase activities were normalized to β-galactosidase activity."}}, "note": "Entries after “also recorded” stand apart in the source; their conditions may differ."}
{"compound": "COC(=O)[C@@]1(C)CC[C@]2(C)CC[C@]3(C)C(=CC(=O)[C@@H]4[C@@]5(C)C=C(C#N)C(=O)C(C)(C)[C@@H]5CC[C@]43C)[C@@H]2C1", "note": "[β-CDODA-Me, Methyl 2-cyano-3,11-dioxo-18β-oleana-1,12-dien-30-oate]", "values": [{"measurement": "KLF4 induction", "setting": "SW480 cells; SW480, 0.5-7.5 μM", "result": "induction"}, {"measurement": "NAG-1 induction", "setting": "SW480 cells; SW480, 24 hr", "result": "not induced"}, {"measurement": "induction of GRP78 protein (ER stress)", "setting": "SW480 cells; SW480, 24 hr", "result": "not observed"}, {"measurement": "KLF-4 induction after cotreatment with T007", "setting": "SW480 cells; SW480, 24 hr, 10 μM T007", "result": "blocks this induction response"}, {"measurement": "down regulation of cyclin D1, p27 or PARP cleavage after cotreatment with T007", "setting": "SW480 cells; SW480, 24 hr, 10 μM T007", "result": "does not affect"}, {"measurement": "PARP cleavage (indicator of apoptosis)", "setting": "SW480 cells; SW480, 24 hr, 0.5-5.0 μM", "result": "only observed at higher concentrations"}, {"measurement": "p27 protein", "setting": "SW480 cells; SW480, 24 hr, 0.5-5.0 μM", "result": "dose-dependent increase"}, {"measurement": "Cyclin D1 and p21 protein expression", "setting": "SW480 cells; SW480, 24 hr, 0.5 or 1 μM", "result": "unchanged"}, {"measurement": "Cyclin D1 and p21 protein expression", "setting": "SW480 cells; SW480, 24 hr, 2.5 and 5.0 μM", "result": "decreased"}, {"measurement": "caveolin-1 protein expression", "setting": "SW480 cells; SW480, treatment for 3 days", "result": "did not affect expression of caveolin-1"}, {"measurement": "IC50", "setting": "[1]", "result": "1 to 2.5", "unit": "µM"}, {"measurement": "Sp1, Sp3 and Sp4 protein expression", "setting": "[2]", "result": "concentration-dependent decrease; also recorded: induces Sp protein degradation"}, {"measurement": "VEGF expression", "setting": "[2]", "result": "parallel decrease"}, {"measurement": "caspase-dependent apoptosis (PARP cleavage)", "setting": "[2]", "result": "induction of caspase-dependent apoptosis"}, {"measurement": "effects on Sp protein expression with PPARγ antagonist (T007)", "setting": "[2]", "result": "not blocked; also recorded: not reversed"}, {"measurement": "effects on Sp protein expression with proteasome inhibitor lactacystin", "setting": "[2]", "result": "not blocked; also recorded: only a minimal amount of reversal"}, {"measurement": "IC50", "setting": "[3]", "result": "~1", "unit": "µM"}, {"measurement": "luciferase activity of p21 promoter constructs", "setting": "p21 promoter", "result": "induces luciferase activity"}, {"measurement": "luciferase activity of AR-Luc construct", "setting": "AR promoter", "result": "decreased luciferase activity"}, {"measurement": "melting point", "result": "243 to 245", "unit": "°C"}]}
